Values joined by “and” are separate entries in the source; they are usually repeats but may differ in a detail not shown here. Equal entries are not always repeated.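 Exposure lasted 48 hours, with cells grown in 96-well plates and compounds tested at five concentrations. TGI: total growth inhibition.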 Where a SMILES comes first, the peptide text is derived from it. [ ]: non-standard residue; d: D form. The star is where a group is joined. Phe(4-NO2) = N[CH](Cc1ccc([N+](=O)[O-])cc1)C(=O)O; Boc = CC(C)(C)OC(=O)*
How the values were obtained:
Experiment in all cases: growth of human tumour cells (NCI), 48 h
[1] = tested on: HCC-2998 colon
[2] = tested on: BT-549 breast
[3] = tested on: UACC-62 melanoma
[4] = tested on: NCI-H23 lung
[5] = tested on: SK-MEL-28 melanoma
[6] = tested on: UACC-257 melanoma
[7] = tested on: NCI-H522 lung
[8] = tested on: SF-268 CNS
[9] = tested on: OVCAR-8 ovarian
[10] = tested on: SF-295 CNS
[11] = tested on: CCRF-CEM leukemia

| Compound | TGI [1] | TGI [2] | TGI [3] | TGI [4] | TGI [5] | TGI [6] | TGI [7] | TGI [8] | TGI [9] | TGI [10] | TGI [11] |
| --- | --- | --- | --- | --- | --- | --- | --- | --- | --- | --- | --- |
| N#Cc1ccc(-n2c3ccccc3c3ccc4c(c32)C(=O)C=CC4=O)cc1 | 18.3 µM | 25.3 µM | 15.6 µM | 24.4 µM | 13.1 µM | 13.9 µM | 1.19 µM | 9.12 µM | > 58.7 µM | 28.2 µM |  |
| Cc1ccc2c(c1)-c1nc(N)c(C#N)c(-c3ccccc3)c1CCS2(=O)=O | > 100 µM | > 100 µM | > 100 µM | > 100 µM | > 100 µM | > 100 µM | > 100 µM | > 100 µM | 56.5 µM |  |  |
| CC1=C(C(=O)Nc2ccccc2)C2(CCCCC2)C(C#N)=C(SCC(=O)Nc2ccc(Br)cc2)N1 | 10.4 µM | 33.4 µM | > 87.3 µM | 23.3 µM | > 26.5 µM | > 43.4 µM | 7.25 µM | 8.74 µM | 34.9 µM | 28.9 µM | 7.02 µM |
| COc1ccccc1C(=O)c1c(NCc2ccccc2)c(=O)c1=O | > 100 µM | > 100 µM | > 100 µM | > 100 µM | 35.8 µM | > 100 µM | 31.8 µM | > 100 µM | > 100 µM | > 100 µM | > 100 µM |
| CC(C)NC(=O)CN1CCN(c2c(O)c3c(c(O)c2Cl)C(=O)C=CC3=O)CC1 | 10 µM | 2.85 µM | 3.22 µM | 3.02 µM | 3.17 µM | 3.25 µM | 3.33 µM | 4.04 µM | 3.81 µM | 19.7 µM |  |
| N#Cc1c(N)nc(Sc2ccccc2N)c(C#N)c1-c1ccc(Cl)cc1 | 36 µM | 33.2 µM | 13 µM | > 63 µM | > 100 µM | 62.9 µM | 35.8 µM | 23.8 µM | 41 µM | 25.9 µM | > 100 µM |
| CCC(=O)Nc1ccc(N2C(=O)C(Cl)C2c2ccc(SC)cc2)cc1 (stereo not drawn) | 96.9 µM | > 100 µM | > 100 µM | > 100 µM | > 100 µM | > 100 µM | > 100 µM | > 100 µM | > 100 µM | > 100 µM | > 100 µM |
| COC(=O)C1OC(O[C@H]2CC[C@]3(C)[C@H]4CC=C5[C@@H]6CC(C)(C)CC[C@]6(C(=O)OC6OCC(O)C(O)C6OC6OC(C)C(OC7OCC(O)C(O)C7O)C(O)C6O)CC[C@@]5(C)[C@]4(C)CC[C@H]3C2(C)C)C(O)C(O)C1O (stereo partly drawn) | 25.4 µM and 29.5 µM | 34.1 µM and 33.2 µM | 32 µM and 32.5 µM | 29.1 µM and 30 µM | 27.8 µM and 30.5 µM | 27.4 µM and 29.7 µM | 30.9 µM and 30.5 µM | 31.2 µM and 34.7 µM | 40.7 µM and 42.8 µM | 34.8 µM and 32.2 µM | 53.5 µM and 47.2 µM |
| COc1cc(/C=C/C(=O)C2(C(=O)/C=C/c3cc(OC)c(OC)c(OC)c3)CCCCC2)cc(OC)c1OC | > 100 µM | 91.9 µM | 53.8 µM | > 100 µM | > 100 µM | > 100 µM | 96.9 µM | > 100 µM | 65.2 µM | 89 µM | > 100 µM |
| CN(C)c1nc(Cl)c2c(-c3ccccc3)c(-c3ccccc3)oc2n1 | > 100 µM | 97.7 µM | > 100 µM | > 100 µM | > 100 µM | > 100 µM | 78.7 µM | > 100 µM | > 100 µM | > 100 µM | > 100 µM |
| C[C@@H]1CC[C@@H]2[C@@H](C1)O[C@@H]([C@H](C)OCc1ccccc1)SC2(C)C | 31.8 µM | > 100 µM | > 100 µM | > 100 µM | 88.1 µM | 73.3 µM | 40.2 µM | > 100 µM | > 100 µM | 34.5 µM |  |
| CCOC(=O)c1c(N2CCOCC2)[nH]c(=O)c(C(c2ccco2)c2c(O)c(C(=O)OCC)c(N3CCOCC3)[nH]c2=O)c1O | > 100 µM | > 100 µM | > 100 µM | > 100 µM | > 100 µM | > 100 µM | > 100 µM | > 100 µM | > 100 µM | > 100 µM | > 100 µM |
| O=[N+]([O-])c1cc(-c2nc(-c3ccccc3)c(-c3ccccc3)[nH]2)c(O)c([N+](=O)[O-])c1 | 30.8 µM | 59.8 µM | 33.8 µM | 36.1 µM | > 100 µM | 50.9 µM | 63.7 µM | > 100 µM | > 100 µM | 54.2 µM | 72.7 µM |
| O=C1CSC(c2cccc([N+](=O)[O-])c2)N1c1ccc(-n2c(-c3ccccc3)nc3ccccc3c2=O)cc1 (stereo not drawn) | > 100 µM | > 100 µM | > 100 µM | > 100 µM | > 100 µM | > 100 µM | > 100 µM | > 100 µM | > 100 µM | > 100 µM | > 100 µM |
| CC(=O)OCc1ccc2oc(=O)c(C(=O)Oc3ccccc3)cc2c1 | > 100 µM | > 100 µM | 38.6 µM | > 100 µM | > 100 µM | > 100 µM | > 100 µM | > 100 µM | > 100 µM | > 100 µM | > 100 µM |
| COC(=O)c1ccccc1C1CN=NC12Cc1cc(C)ccc1C2=O (stereo not drawn) | > 100 µM | > 100 µM | > 100 µM | > 100 µM | > 100 µM | > 100 µM | > 100 µM | > 100 µM | > 100 µM | > 100 µM | > 100 µM |
| Cc1ccc(S(=O)(=O)NNCNC(=O)c2ccccc2)cc1 | > 100 µM | > 100 µM | > 100 µM | > 100 µM | > 100 µM | > 100 µM | > 100 µM | > 100 µM | > 100 µM | > 100 µM | 63.2 µM |
| COc1ccc(C(=O)/C=C/c2cc(O)c(O)c(F)c2F)c(OC)c1 | 16.8 µM | 70.5 µM | 42.8 µM | 41.7 µM | > 100 µM | 41.8 µM | 30.3 µM | > 100 µM | > 100 µM | > 100 µM | 32.9 µM |
| CCCCCCCCCCCCCCCCCCN(C)CC(COP(=O)([O-])OCC[N+](C)(C)C)OC (stereo not drawn) | 24.2 µM | > 100 µM | 32.9 µM | 49.3 µM | 56.8 µM | 56.4 µM | 30.2 µM | 27.5 µM | 44.8 µM | 23.9 µM | 24.3 µM |
| O=C(NNC(=S)NC1CCCCC1)c1csc(NC(=S)NC2CCCCC2)n1 | 14.5 µM | 21.1 µM | 22.6 µM | 45.2 µM |  | 11.8 µM | 28.2 µM | 26.3 µM | 15 µM | 19.7 µM | > 100 µM |
| CNC(=O)CCC(NC(=O)OC(C)(C)C)C(=O)NC(Cc1ccc([N+](=O)[O-])cc1)C(=O)NCC(=O)NC (stereo not drawn) (Boc-Glu(NHMe)-[Phe(4-NO2)]-Gly-NHMe; configuration not given here) | > 100 µM | > 100 µM | > 100 µM | > 100 µM | > 100 µM |  | > 100 µM | > 100 µM | > 100 µM | > 100 µM |  |
| Nn1c(Cc2ccc([N+](=O)[O-])cc2)n[nH]c1=O | > 100 µM | > 100 µM | > 100 µM | > 100 µM | > 100 µM | > 100 µM | > 100 µM | > 100 µM | > 100 µM | > 100 µM | > 100 µM |
| CC(=O)OCC1OC(n2c(-c3ccc(C)cc3)cc(-c3ccccc3)c(C#N)c2=S)C(OC(C)=O)C(OC(C)=O)C1OC(C)=O (stereo not drawn) | > 100 µM | > 100 µM | > 100 µM | > 100 µM | > 100 µM |  | > 100 µM | > 100 µM | > 100 µM | > 100 µM |  |
| O=C(Nc1nc(C23CC4CC(CC(C4)C2)C3)cs1)c1cc2ccccc2oc1=O | > 100 µM | > 100 µM |  | > 100 µM | > 100 µM | > 100 µM | > 100 µM | > 100 µM | > 100 µM | > 100 µM | > 100 µM |
| Cc1cn(CC2=NCC(C)N2)c(=O)[nH]c1=O (stereo not drawn) | > 100 µM | > 100 µM | > 100 µM | > 100 µM | > 100 µM | > 100 µM | > 100 µM | > 100 µM | > 100 µM | > 100 µM |  |
| COC(=O)C(Cc1c[nH]c2ccccc12)NC(=O)C(Cc1c[nH]c2ccccc12)NC(=O)C(Cc1c[nH]c2ccccc12)NC(=O)C(Cc1c[nH]c2ccccc12)NC(=O)C(Cc1c[nH]c2ccccc12)NC(=O)C(Cc1c[nH]c2ccccc12)NC(=O)C(Cc1c[nH]c2ccccc12)NC(=O)C(Cc1c[nH]c2ccccc12)NC(=O)OC(C)(C)C (stereo not drawn) (Boc-WWWWWWWW-OMe; configuration not given here) | > 100 µM | > 100 µM | > 100 µM | > 100 µM | > 100 µM | > 100 µM | 60.3 µM | > 100 µM | > 100 µM |  | 96.2 µM |
| O=c1/c(=C/c2ccc(-c3ccc(Cl)cc3Cl)o2)sc2n1[C@@H](c1ccc(Cl)cc1)C=C(c1cc(F)c(Cl)cc1Cl)N=2 | 56.2 µM | > 100 µM | > 100 µM | > 100 µM | > 100 µM | > 100 µM | > 100 µM | > 100 µM | > 100 µM | > 100 µM |  |
